# Results from ChEMBL document CHEMBL6109102, “Conjugation with the XJB peptide enhanced neuroprotective effect of honokiol via SIRT3 modulation” (Eur J Med Chem, 2025).
# The source made the active and inactive calls. The calls are words filed in the database; no cut-off is given here.
# Key:
# [1] = system: SH-SY5Y; assay: Cytotoxicity against human SH-SY5Y cells assessed as inhibition of cell viability at 100 uM incubated for 24 hrs by MTT assay; type: functional, cell-based
# [2] = system: PC-12; assay: Neuroprotective activity against H2O2-induced cell injury in rat PC12 cells assessed as cell viability at 2 uM incubated for 24 hrs by MTT assay; type: functional, cell-based
# [3] = Drug uptake in mitochondria of rat PC12 cells at 8 uM incubated for 8.5 hrs by HPLC analysis; type: ADME; conditions: pc12, 8.5 h
# [4] = system: PC-12; assay: Neuroprotective activity in H2O2-induced rat PC12 cells assessed as reversal of mitochondrial membrane potential reduction by measuring red fluorescence at 1.25 uM incubated with compound for 24 hrs followed by H2O2 addition and measured after 24 hrs by JC-1 based fluorescence microscopic analysis (reference value: 21.62 a.u.); type: functional
# [5] = system: PC-12; assay: Neuroprotective activity in H2O2-induced rat PC12 cells assessed as reversal of mitochondrial membrane potential reduction by measuring red fluorescence at 2.5 uM incubated with compound for 24 hrs followed by H2O2 addition and measured after 24 hrs by JC-1 based fluorescence microscopic analysis (reference value: 21.62 a.u.); type: functional
# [6] = system: PC-12; assay: Neuroprotective activity in H2O2-induced rat PC12 cells assessed as reversal of mitochondrial membrane potential reduction by measuring red fluorescence at 5 uM incubated with compound for 24 hrs followed by H2O2 addition and measured after 24 hrs by JC-1 based fluorescence microscopic analysis (reference value: 21.62 a.u.); type: functional
# [7] = system: PC-12; assay: Neuroprotective activity in H2O2-induced rat PC12 cells assessed as reversal of mitochondrial membrane potential reduction by measuring green fluorescence at 1.5 uM incubated with compound for 24 hrs followed by H2O2 addition and measured after 24 hrs by JC-1 based fluorescence microscopic analysis (reference value: 4.90 a.u.); type: functional
# [8] = system: PC-12; assay: Neuroprotective activity in H2O2-induced rat PC12 cells assessed as reversal of mitochondrial membrane potential reduction by measuring green fluorescence at 2.5 uM incubated with compound for 24 hrs followed by H2O2 addition and measured after 24 hrs by JC-1 based fluorescence microscopic analysis (reference value: 4.90 a.u.); type: functional
# [9] = system: PC-12; assay: Neuroprotective activity in H2O2-induced rat PC12 cells assessed as reversal of mitochondrial membrane potential reduction by measuring green fluorescence at 5 uM incubated with compound for 24 hrs followed by H2O2 addition and measured after 24 hrs by JC-1 based fluorescence microscopic analysis (reference value: 4.90 a.u.); type: functional
# [10] = system: PC-12; assay: Neuroprotective activity in H2O2-induced rat PC12 cells assessed as reversal of mitochondrial membrane potential reduction by measuring red fluorescence fold change at […] incubated with compound for 24 hrs followed by H2O2 addition and measured after 24 hrs by JC-1 based fluorescence microscopic analysis (reference value: 1.00); type: functional
# [11] = system: PC-12; assay: Neuroprotective activity in H2O2-induced rat PC12 cells assessed as reversal of mitochondrial membrane potential reduction by measuring red fluorescence fold change at 2.5 uM incubated with compound for 24 hrs followed by H2O2 addition and measured after 24 hrs by JC-1 based fluorescence microscopic analysis (reference value: 1.00); type: functional
# [12] = system: PC-12; assay: Neuroprotective activity in H2O2-induced rat PC12 cells assessed as reversal of mitochondrial membrane potential reduction by measuring red fluorescence fold change at 5 uM incubated with compound for 24 hrs followed by H2O2 addition and measured after 24 hrs by JC-1 based fluorescence microscopic analysis (reference value: 1.00); type: functional
# [13] = system: PC-12; assay: Neuroprotective activity in H2O2-induced rat PC12 cells assessed as reversal of mitochondrial membrane potential reduction by measuring green fluorescence fold change at 1.5 uM incubated with compound for 24 hrs followed by H2O2 addition and measured after 24 hrs by JC-1 based fluorescence microscopic analysis (reference value: 1.00); type: functional
# [14] = system: PC-12; assay: Neuroprotective activity in H2O2-induced rat PC12 cells assessed as reversal of mitochondrial membrane potential reduction by measuring green fluorescence fold change at 2.5 uM incubated with compound for 24 hrs followed by H2O2 addition and measured after 24 hrs by JC-1 based fluorescence microscopic analysis (reference value: 1.00); type: functional
# [15] = system: PC-12; assay: Neuroprotective activity in H2O2-induced rat PC12 cells assessed as reversal of mitochondrial membrane potential reduction by measuring green fluorescence fold change at 5 uM incubated with compound for 24 hrs followed by H2O2 addition and measured after 24 hrs by JC-1 based fluorescence microscopic analysis (reference value: 1.00); type: functional
# [16] = system: PC-12; assay: Induction of autophagy in H2O2-induced rat PC12 cells assessed as downregulation of P62 expression by Western blot analysis; type: functional, cell-based; conditions: dose 1.25-5 µM
# [17] = system: PC-12; assay: Induction of autophagy in H2O2-induced rat PC12 cells assessed as upregulation of LC3-II/I ratio by Western blot analysis; type: functional, cell-based; conditions: dose 1.25-5 µM
# [18] = system: PC-12; assay: Induction of autophagy in rat PC12 cells assessed as reduction of LC3-II/I ratio in presence of 3-TYP by Western blot analysis; type: functional, cell-based
# [19] = system: PC-12; assay: Neuroprotective activity in H2O2-induced rat PC12 cells assessed as reduction in cell viability in presence of 3-TYP at 10 uM; type: functional, cell-based
# [20] = system: PC-12; assay: Neuroprotective activity in H2O2-induced rat PC12 cells assessed as upregulation of SIRT-3 level at 1.25 to 5 uM by Western blot analysis; type: functional, cell-based; conditions: dose 1.25-5 µM
# [21] = system: PC-12; assay: Neuroprotective activity in H2O2-induced rat PC12 cells assessed as upregulation of Mfn-1 expression at 1.25 to 5 uM by Western blot analysis; type: functional, cell-based; conditions: dose 1.25-5 µM
# [22] = system: PC-12; assay: Neuroprotective activity in H2O2-induced rat PC12 cells assessed as upregulation of p-AMPK/AMPK ratio at 1.25 to 5 uM by Western blot analysis; type: functional, cell-based; conditions: dose 1.25-5 µM
# [23] = system: PC-12; assay: Neuroprotective activity in H2O2-induced rat PC12 cells assessed as suppression of Mfn-1 expression in presence of 3-TYP by Western blot analysis; type: functional, cell-based
# [24] = system: PC-12; assay: Neuroprotective activity against H2O2-induced cell injury in rat PC12 cells assessed as cell viability incubated for 24 hrs by MTT assay; type: functional, cell-based; conditions: dose 0.37-30 µM
# [25] = Drug uptake in cytoplasm of rat PC12 cells at 8 uM incubated for 8.5 hrs by HPLC analysis; type: ADME, subcellular; conditions: pc12, 8.5 h
# [26] = Drug uptake in rat PC12 cells at 8 uM incubated for 8.5 hrs by HPLC analysis; type: ADME, cell-based; conditions: pc-12, 8.5 h
smiles,measurement,setting,value
C=CCc1ccc(O)c(-c2ccc(OCCCNC(=O)[C@H](CCCNC(=O)OCc3ccccc3)NC(=O)[C@@H](NC(=O)[C@@H]3CCCN3C(=O)[C@@H](Cc3ccccc3)NC(=O)[C@H](CC(C)C)NC(=O)OC(C)(C)C)C(C)C)c(CC=C)c2)c1,Activity,[1],inactive
same,Activity,[2],Active
same,Drug uptake,[3],Active
same,Activity,[4],3.18 a.u.
same,Activity,[5],11.01 a.u.
same,Activity,[6],15.68 a.u.
same,Activity,[7],3.7 a.u.
same,Activity,[8],7.17 a.u.
same,Activity,[9],4.76 a.u.
same,fold change (FC),[10],0.14
same,fold change (FC),[11],0.52
same,fold change (FC),[12],0.74
same,fold change (FC),[13],1.4
same,fold change (FC),[14],2.91
same,fold change (FC),[15],1.44
same,Activity,[16],Dose-dependent-effect
same,Activity,[17],Dose-dependent-effect
same,Activity,[18],Active
same,Activity,[19],Active
same,Activity,[20],Active
same,Activity,[21],Active
same,Activity,[22],Active
same,Activity,[23],Active
same,Activity,[24],Dose-dependent-effect
same,Drug uptake,[25],Active
same,Drug uptake,[26],Active
